HELM strings list units from the 5' end as sugar, base in round brackets, then linkage (d deoxyribose, r ribose, m 2'-O-methyl, p phosphodiester). Strings are as the collection lists them, not checked against the first reports. ss, as = sense and antisense strand; [lna] = locked nucleic acid (LNA); [una] = unlocked nucleic acid; [fl2r] = 2'-fluoro
Further: test system not given here.

For this data set the following is noted: siRNA.
Substance “RNA1{r(C)p.r(U)p.r(U)p.r(A)p.r(C)p.r(G)p.r(C)p.r(U)p.r(G)p.r(A)p.r(G)p.r(U)p.r(A)p.r(C)p.r(U)p.r(U)p.r(C)p.r(G)p.r(A)p.r(T)p.r(T)}|RNA2{r(U)p.r(C)p.r(G)p.r(A)p.r(A)p.r(G)p.r(U)p.r(A)p.r(C)p.r(U)p.r(C)p.r(A)p.r(G)p.r(C)p.r(G)p.r(U)p.r(A)p.r(A)p.r(G)p.[lna](T)p.[lna](T)}$$$RNA1{StrandType:ss}|RNA2{StrandType:as}$” registered a target mRNA knockdown of 93%.
Substance “RNA1{r(C)p.r(U)p.r(U)p.r(A)p.r(C)p.r(G)p.r(C)p.r(U)p.r(G)p.r(A)p.r(G)p.r(U)p.r(A)p.r(C)p.r(U)p.r(U)p.r(C)p.r(G)p.r(A)p.r(T)p.r(T)}|RNA2{r(U)p.r(C)p.[lna](G)p.r(A)p.r(A)p.r(G)p.r(U)p.r(A)p.r(C)p.r(U)p.r(C)p.r(A)p.r(G)p.r(C)p.r(G)p.r(U)p.r(A)p.r(A)p.r(G)p.r(T)p.r(T)}$$$RNA1{StrandType:ss}|RNA2{StrandType:as}$” returned a target mRNA knockdown of 82%.
For “RNA1{r(C)p.r(C)p.r(C)p.r(U)p.r(C)p.r(C)p.r(C)p.r(C)p.[fl2r](U)p.r(G)p.r(U)p.r(C)p.r(C)p.r(C)p.r(C)p.r(G)p.r(C)p.r(U)p.r(U)p.r(T)p.r(T)}|RNA2{r(A)p.r(A)p.r(G)p.r(C)p.r(G)p.r(G)p.r(G)p.r(G)p.r(A)p.r(C)p.r(A)p.r(G)p.r(G)p.r(G)p.r(G)p.r(A)p.r(G)p.r(G)p.r(G)p.r(T)p.r(T)}$$$RNA1{StrandType:ss}|RNA2{StrandType:as}$”, the target mRNA knockdown turned out to be 73%.
The same measure for “RNA1{r(A)p.r(G)p.r(U)p.r(C)p.r(C)p.r(C)p.r(U)p.r(G)p.r(G)p.r(A)p.r(G)p.r(C)p.r(C)p.r(U)p.m(U)p.m(A)p.r(A)p.r(A)p.r(C)p.r(T)p.r(T)}|RNA2{r(G)p.r(U)p.r(U)p.r(U)p.m(A)p.r(A)p.r(G)p.r(G)p.r(C)p.r(U)p.r(C)p.r(C)p.r(A)p.r(G)p.r(G)p.r(G)p.r(A)p.r(C)p.r(U)p.r(T)p.r(T)}$$$RNA1{StrandType:ss}|RNA2{StrandType:as}$”: 62%; for “RNA1{m(A)p.m(A)p.r(C)p.r(C)p.r(C)p.m(A)p.r(C)p.r(C)p.m(A)p.r(C)p.m(A)p.r(G)p.r(C)p.m(U)p.m(A)p.r(G)p.m(A)p.m(A)p.r(C)p.m(U)p.m(U)}|RNA2{m(A)p.m(A)p.r(G)p.m(U)p.m(U)p.r(C)p.m(U)p.m(A)p.r(G)p.r(C)p.m(U)p.r(G)p.m(U)p.r(G)p.r(G)p.m(U)p.r(G)p.r(G)p.r(G)p.m(U)p.m(U)}$$$RNA1{StrandType:ss}|RNA2{StrandType:as}$”: 7%; for “RNA1{r(A)p.r(G)p.r(A)p.r(A)p.r(G)p.m(U)p.r(A)p.r(C)p.m(C)p.r(A)p.r(G)p.r(G)p.r(A)p.r(G)p.m(G)p.r(C)p.r(G)p.r(U)p.r(U)p.r(T)p.r(T)}|RNA2{r(A)p.r(A)p.r(C)p.r(G)p.r(C)p.r(C)p.r(U)p.r(C)p.r(C)p.m(U)p.r(G)p.r(G)p.m(U)p.r(A)p.r(C)p.r(U)p.r(U)p.r(C)p.r(U)p.r(T)p.r(T)}$$$RNA1{StrandType:ss}|RNA2{StrandType:as}$”: 68%.
Take “RNA1{r(A)p.r(U)p.r(C)p.m(U)p.r(A)p.r(C)p.r(C)p.r(C)p.r(A)p.r(G)p.r(C)p.r(U)p.r(C)p.r(U)p.r(C)p.r(C)p.r(C)p.r(U)p.r(U)p.r(T)p.r(T)}|RNA2{r(A)p.r(A)p.r(G)p.r(G)p.r(G)p.r(A)p.r(G)p.r(A)p.r(G)p.r(C)p.r(U)p.r(G)p.r(G)p.r(G)p.m(U)p.r(A)p.r(G)p.r(A)p.r(U)p.r(T)p.r(T)}$$$RNA1{StrandType:ss}|RNA2{StrandType:as}$”: the target mRNA knockdown was determined as 77%.
The same measure for “RNA1{r(U)p.r(U)p.r(U)p.r(C)p.r(C)p.r(C)p.r(C)p.r(C)p.r(A)p.r(G)p.r(G)p.[fl2r](U)p.r(A)p.r(A)p.r(C)p.r(G)p.r(A)p.r(U)p.r(U)p.r(T)p.r(T)}|RNA2{r(A)p.r(A)p.r(U)p.r(C)p.r(G)p.r(U)p.[fl2r](U)p.r(A)p.r(C)p.r(C)p.r(U)p.r(G)p.r(G)p.r(G)p.r(G)p.r(G)p.r(A)p.r(A)p.r(A)p.r(T)p.r(T)}$$$RNA1{StrandType:ss}|RNA2{StrandType:as}$”: 75%; for “RNA1{r(C)p.r(G)p.r(G)p.r(A)p.r(U)p.r(C)p.m(U)p.r(A)p.r(C)p.r(A)p.r(C)p.r(C)p.r(U)p.r(U)p.r(C)p.r(A)p.r(A)p.r(G)p.r(A)p.r(T)p.r(T)}|RNA2{r(U)p.r(C)p.r(U)p.r(U)p.r(G)p.r(A)p.r(A)p.r(G)p.r(G)p.r(U)p.r(G)p.m(U)p.r(A)p.r(G)p.r(A)p.r(U)p.r(C)p.r(C)p.r(G)p.r(T)p.r(T)}$$$RNA1{StrandType:ss}|RNA2{StrandType:as}$”: 69%; for “RNA1{r(C)p.r(C)p.r(G)p.r(A)p.r(G)p.r(A)p.r(G)p.r(C)p.r(U)p.r(C)p.r(U)p.r(C)p.r(C)p.m(U)p.r(A)p.r(C)p.r(C)p.r(U)p.r(U)p.r(T)p.r(T)}|RNA2{r(A)p.r(A)p.r(G)p.r(G)p.m(U)p.r(A)p.r(G)p.r(G)p.r(A)p.r(G)p.r(A)p.r(G)p.r(C)p.r(U)p.r(C)p.r(U)p.r(C)p.r(G)p.r(G)p.r(T)p.r(T)}$$$RNA1{StrandType:ss}|RNA2{StrandType:as}$”: 75%.
Turning to “RNA1{r(G)p.r(U)p.r(A)p.r(U)p.r(G)p.r(A)p.r(C)p.r(C)p.r(G)p.r(A)p.r(C)p.r(U)p.r(A)p.r(C)p.r(G)p.r(C)p.r(G)p.r(U)p.r(A)p.r(T)p.r(T)}|RNA2{r(U)p.r(U)p.r(C)p.r(A)p.r(G)p.[una](U)p.r(G)p.r(U)p.r(G)p.r(A)p.r(U)p.r(G)p.r(A)p.r(C)p.r(A)p.r(C)p.r(U)p.r(U)p.r(G)p.r(T)p.r(T)}$$$RNA1{StrandType:ss}|RNA2{StrandType:as}$”, the target mRNA knockdown worked out at 78%.
Regarding “RNA1{r(G)p.r(C)p.r(A)p.r(G)p.r(C)p.r(A)p.r(C)p.r(G)p.r(A)p.r(C)p.r(U)p.r(U)p.r(C)p.r(U)p.r(U)p.r(C)p.r(A)p.r(A)p.r(G)p.r(U)p.r(U)}|RNA2{r(C)p.m(U)p.r(U)p.r(G)p.r(A)p.r(A)p.r(G)p.r(A)p.r(A)p.r(G)p.r(U)p.r(C)p.r(G)p.r(U)p.r(G)p.r(C)p.r(U)p.r(G)p.r(C)p.r(U)p.r(U)}$$$RNA1{StrandType:ss}|RNA2{StrandType:as}$”, the target mRNA knockdown is 71.7%.
The same measure for “RNA1{r(A)p.r(G)p.r(A)p.r(G)p.r(G)p.r(A)p.r(C)p.r(C)p.r(U)p.m(A)p.r(G)p.r(A)p.r(A)p.r(G)p.r(G)p.r(C)p.r(G)p.r(G)p.r(C)p.r(T)p.r(T)}|RNA2{r(G)p.r(C)p.r(C)p.r(G)p.r(C)p.r(C)p.r(U)p.r(U)p.r(C)p.r(U)p.r(A)p.r(G)p.r(G)p.r(U)p.r(C)p.r(C)p.r(U)p.r(C)p.r(U)p.r(T)p.r(T)}$$$RNA1{StrandType:ss}|RNA2{StrandType:as}$”: 92%.
Substance “RNA1{[fl2r](C)p.r(G)p.[fl2r](A)p.r(C)p.[fl2r](G)p.r(A)p.[fl2r](U)p.r(U)p.[fl2r](C)p.r(U)p.[fl2r](U)p.r(C)p.[fl2r](U)p.r(A)p.[fl2r](C)p.r(U)p.[fl2r](C)p.r(A)p.[fl2r](A)p.r(T)p.r(T)}|RNA2{r(U)p.r(U)p.r(G)p.r(A)p.r(G)p.r(U)p.r(A)p.r(G)p.r(A)p.r(A)p.r(G)p.r(A)p.r(A)p.r(U)p.r(C)p.r(G)p.r(U)p.r(C)p.r(G)p.r(T)p.r(T)}$$$RNA1{StrandType:ss}|RNA2{StrandType:as}$” gave a target mRNA knockdown of 56%.

(Values after the OligoGym collection.)
